Experimental data taken from patent publication US20240384233A1, “Method for Producing Cardiomyocytes by Means of Reprogramming” (Plastech Pharmaceutical Technology Co., Ltd., priority 2020, published 2024).

Experiments:
[1] = system: neonatal mouse skin fibroblasts (NSF) and mouse cardiac fibroblasts (nCFs); experiment: Substitute for 2C: small molecules of the same signaling pathway (beating cells in GMT NSF, cTnT positive cells in MT nCF); format: cell-based; conditions: GMT NSF D18 beating, MT nCF four weeks cTnT; for replacement of Baricitinib (beating cells, number of cTnT-positive cells): combined with SB431542; for replacement of SB431542 (beating cells, number of cTnT-positive cells): combined with Baricitinib
Procedure: Specifically, at D-2 (day-2), Myh6-mCherry neonatal mouse skin fibroblasts (NSF) were plated; at D-1 (day-1),the cells were infected with three lentiviruses expressing Gata4, Mef2c and Tbx5 (GMT), respectively; at D0 (day 0), the media were replaced with reprogramming media added with small molecules, and replaced every 3-4 days; andat D18, beating cells were counted. In addition, at D-2, WT mouse cardiac fibroblasts (nCFs) were plated, and residual cardiomyocytes were removed with CD90.2 MACS; at D-1, the cells were infected with virus expressing Mef2c+Tbx5 (MT); at D0, the media were replaced with reprogramming media added with small molecules, and replaced every 3 days; and after four weeks, cTnT positive cells were counted.2C was used as a positive control.
SB431542 is an inhibitor of TGFβ signaling pathway, and this example analyzed whether other small molecules of this signaling pathway could be combined with Baricitinib, including RepSox, GW788388, SD-208, LY364947, Y-27632, LDN-193189, LY2109761 and Galunisertib. Baricitinib is an inhibitor of Jak pathway, and this example analyzed whether other small molecules of this signaling pathway could be combined with SB431542, including Filgotinib, WP1066, Gandotinib, Ruxolitinib and AZD1480. […] It can be seen that the TGFβ signaling pathway is important for reprogramming into cardiomyocytes; however, at the same time, Baricitinib cannot be replaced by most other compounds targeting Jak-Stat.

Tyk2 gene = experiment: Knockdown effect of shRNAs on Tyk2 expression; format: cell-based, mouse; conditions: FIG. 21C
Excerpt: (§1) Briefly, shRNAs targeting Tyk2 gene (shTyk2#1, shTyk2#2, shTyk2#3, shTyk2#4, shTyk2#5) were designed, introduced into neonatal mouse fibroblasts together with transcription factor combination MT, and then induced in reprogramming medium containing C1 to test the efficiency of reprogramming into cardiomyocyte-like cells.

[2] = system: neonatal mouse fibroblasts; experiment: Cardiomyocyte reprogramming with Tyk2 knockdown/knockout plus MT and C1; format: cell-based; conditions: combined with transcription factor MT and C1
Excerpt: as §1
To further confirm the role of specific inhibition of Tyk2 in cardiomyocyte reprogramming, the inventors further designed five different sgRNAs targeting Tyk2 gene, knocked out the Tyk2 gene of neonatal mouse fibroblasts using CRISPR technique, and tested the efficiency of cardiomyocyte reprogramming in the presence of transcription factor MT and C1, respectively. sgNT was a control for non-targeted Tyk2.

[3] = system: neonatal mouse fibroblasts; experiment: Tyk2 small molecule inhibitors: reprogramming of neonatal mouse fibroblasts into cardiomyocytes (MT+SB431542); format: cell-based; conditions: for beating cardiomyocytes: 2 uM SB431542; for cTnI and a-actinin positive cells: 2 uM SB431542, Tyk2 inhibitor 1, 2, 5 and 10 uM
Procedure: Neonatal suckling mice within 24 h were ordered from Vital River. In an ultraclean bench, heart tissue was taken, cut with sterilized surgical instruments, added with an appropriate amount of Type II Collagenase (1 mg/mL), digested at 37° C. constant temperature, after full digestion, washed twice with IMDM (20% FBS+1% PS+1% NEAA+1% Glu-Max) medium, resuspended with the medium, and plated in a 10 cm culture dish. After 24 h, fresh IMDM was added, and on the fourth day, CD90.2 (anti-Thy1+) was used for MACS separation. The sorted cells were plated in a 24-well plate 2-5×10^5/well), and infected with Fu-tet-o-Mef2c-T2A-Tbx5 virus and rtTA 24 h after plating. After 24 h, the medium was replaced with reprogramming medium, and replaced every 3 days. Beating cells could be seen at the 4th week, and a large number of cTnI and a-actinin could be seen by immunofluorescence staining.
10% FBS, 10% KSR, DMEM/M199 [4:1], 1% PS+1% NEAA+1% Glu-Max, 2 uM SB431542, Tyk2 inhibitor (BMS-986165 or PF-06826647), replaced every 3 days. Tyk2 inhibitor was used at 1, 2, 5 and 10 uM, and the optimal concentration is shown in the concentration gradient curve.

[4] = system: WT mouse cardiac fibroblasts (nCFs); experiment: Replacement of Baricitinib in combination with SB431542 on the basis of MT transduction; format: cell-based; conditions: three weeks
Excerpt: In addition, some small anti-inflammatory molecules have been reported to increase reprogramming-induced cardiomyocyte efficiency, such as Dexamethasone or Nabumetone.

[5] = system: Myh6-mCherry neonatal mouse skin fibroblasts (NSF); experiment: GMT-mediated reprogramming of Myh6-mCherry neonatal mouse skin fibroblasts into induced cardiomyocyte like cells (iCM); format: cell-based; conditions: for optimal action concentration: cTnT staining, titrated on 2 μM of the other small molecule of 2C
Procedure: Reprogramming steps: at d-2, plating cells; at d-1, infecting with virus; andat d0, removing virus-containing medium, and replacing with reprogramming medium. Beating cell count and immunofluorescence assay were performed after approximately 3 weeks.
iCM reprogramming medium: DMEM/M199 (4:1) supplemented with 10% KnockOut serum replacement (KSR), 10% FBS, 1% GlutaMAX, 1% MEM NEAA, 1% Pen Strep, 2 μg/ml Dox and small molecule mixture 2C (2 μM SB431542, 2 μM Baricitinib).
At D-2, 24-well plate was coated with 0.1% gelatin and then placed in a cell culture incubator at 37° C. for 30 min, then the gelatin was aspirated, and the 24-well plate was inoculated with 80,000 cells per well. At D-1, MEF medium containing 6 ng/μl polybrene was replaced, the cells were infected with FU-tet-o-Gata4, FU-tet-o-Mef2c, FU-tet-o-Tbx5, FUdeltaGW-rtTA, 200 μl unconcentrated virus per well per virus. At D0, the medium was replaced with iCM reprogramming medium, and replaced every 3-4 days.
Screening was performed on Myh6-mCherry neonatal mouse dermal fibroblasts. Small molecule library was screened simultaneously with transfection of three genes of GMT (Gata4, Mef2c and Tbx5) to quantify the effect of small molecules on reprogramming by observing the ratio and brightness of reporter genes, as shown in FIG. 1A. Specifically, at D-2 (day-2), Myh6-mCherry neonatal mouse skin fibroblasts (NSF) were plated; at D-1 (day-1), the cells were infected with three lentiviruses expressing Gata4, Mef2c and Tbx5 (GMT), respectively; and at D0 (day 0), the media were replaced with reprogramming media added with small molecules, and replaced every 3-4 days. After three weeks of induction, the number of Myh6-mCherry positive cells was observed and counted to screen for small molecules that promoted the induced cardiomyocyte like cells (iCM).
The optimal action concentration and optimal action time of 2C were then further investigated. […] First, the optimal action concentration of SB431542 was determined by cardiomyocyte marker cTnT staining after adding different concentrations of SB431542 based on 2 μM Baricitinib. […]

Cc1cc(Nc2cc(CN3CCOCC3)c3nc(C)c(Cc4ccc(Cl)cc4F)n3n2)n[nH]1 [Gandotinib]
replacement of Baricitinib (beating cells, number of cTnT-positive cells) [1]: only its structural analogue Ruxolitinib could be used for replacement

shTyk2#1: shRNA targeting Tyk2 gene, SEQ ID NO: 1 (CCCATCTTCATTAGCTGGGAACTCGAGTTCCCAGCTAATGAAGATGGG)
knockdown of Tyk2 expression (Tyk2 gene): could knockdown the expression of Tyk2
efficiency of cardiomyocyte reprogramming (cTnI and a-actinin immunofluorescence) [2]: could achieve similar efficiency of cardiomyocyte reprogramming as small molecule combination 2C

Cn1cc(-c2cn3nccc3c(-c3cnn([C@]4(CC#N)C[C@@H](C#N)C4)c3)n2)cn1 [PF-06826647]
beating cardiomyocytes [3]: could induce beating cardiomyocytes from fibroblasts
cTnI and a-actinin positive cells [3]: could induce a number of cardiac specific markers cTnI and a-actinin positive cells from fibroblasts

Cc1cc(Nc2nc(N[C@@H](C)c3ncc(F)cn3)ncc2Cl)n[nH]1 [AZD1480]
replacement of Baricitinib (beating cells, number of cTnT-positive cells) [1]: only its structural analogue Ruxolitinib could be used for replacement

Cc1cccc(-c2[nH]ncc2-c2ccc3ncccc3n2)n1 [RepSox]
replacement of SB431542 (beating cells, number of cTnT-positive cells) [1]: could be effectively replaced by small molecules of the same signaling pathway

COc1ccc2cc(CCC(C)=O)ccc2c1 [Nabumetone]
replacement of the effect of Baricitinib [4]: could not replace the effect of Baricitinib

O=C(Nc1nc2cccc(-c3ccc(CN4CCS(=O)(=O)CC4)cc3)n2n1)C1CC1 [Filgotinib]
replacement of Baricitinib (beating cells, number of cTnT-positive cells) [1]: only its structural analogue Ruxolitinib could be used for replacement

shTyk2#3: shRNA targeting Tyk2 gene, SEQ ID NO: 3 (CCACTTTAAGAATGAGAGCTTCTCGAGAAGCTCTCATTCTTAAAGTGG)
knockdown of Tyk2 expression (Tyk2 gene): could knockdown the expression of Tyk2
efficiency of cardiomyocyte reprogramming (cTnI and a-actinin immunofluorescence) [2]: could achieve similar efficiency of cardiomyocyte reprogramming as small molecule combination 2C

CCS(=O)(=O)N1CC(CC#N)(n2cc(-c3ncnc4[nH]ccc34)cn2)C1 [Baricitinib]
optimal action concentration [5]: 2 µM

shTyk2#2: shRNA targeting Tyk2 gene, SEQ ID NO: 2 (CCCTTCATCAAGCTAAGTGATCTCGAGATCACTTAGCTTGATGAAGGG)
knockdown of Tyk2 expression (Tyk2 gene): could knockdown the expression of Tyk2
efficiency of cardiomyocyte reprogramming (cTnI and a-actinin immunofluorescence) [2]: could achieve similar efficiency of cardiomyocyte reprogramming as small molecule combination 2C

Cc1cccc(-c2nn3c(c2-c2ccnc4ccc(C(N)=O)cc24)CCC3)n1 [Galunisertib]
replacement of SB431542 (beating cells, number of cTnT-positive cells) [1]: could be effectively replaced by small molecules of the same signaling pathway

NC(=O)c1ccc(-c2nc(-c3ccc4c(c3)OCO4)c(-c3ccccn3)[nH]2)cc1 [SB431542]
optimal action concentration [5]: 2 µM
efficiency of reprogramming induced cardiomyocytes (number of Myh6-mCherry positive cells) ([5]; three weeks of induction): increase the efficiency of reprogramming induced cardiomyocytes

Fc1ccc(Cl)cc1-c1nc(Nc2ccncc2)c2nccnc2n1 [SD-208]
replacement of SB431542 (beating cells, number of cTnT-positive cells) [1]: could be effectively replaced by small molecules of the same signaling pathway

O=C(NC1CCOCC1)c1ccc(-c2cc(-c3c[nH]nc3-c3ccccn3)ccn2)cc1 [GW788388]
replacement of SB431542 (beating cells, number of cTnT-positive cells) [1]: could be effectively replaced by small molecules of the same signaling pathway

C[C@@H](N)[C@H]1CC[C@H](C(=O)Nc2ccncc2)CC1 [Y-27632]
replacement of SB431542 (beating cells, number of cTnT-positive cells) [1]: could be effectively replaced by small molecules of the same signaling pathway

c1ccc(-c2nn3c(c2-c2ccnc4cc(OCCN5CCOCC5)ccc24)CCC3)nc1 [LY2109761]
replacement of SB431542 (beating cells, number of cTnT-positive cells) [1]: could be effectively replaced by small molecules of the same signaling pathway

c1ccc(-c2[nH]ncc2-c2ccnc3ccccc23)nc1 [LY364947]
replacement of SB431542 (beating cells, number of cTnT-positive cells) [1]: could be effectively replaced by small molecules of the same signaling pathway

BMS-986165
beating cardiomyocytes [3]: could induce beating cardiomyocytes from fibroblasts
cTnI and a-actinin positive cells [3]: could induce a number of cardiac specific markers cTnI and a-actinin positive cells from fibroblasts

c1ccc2c(-c3cnn4cc(-c5ccc(N6CCNCC6)cc5)cnc34)ccnc2c1 [LDN-193189]
replacement of SB431542 (beating cells, number of cTnT-positive cells) [1]: could be effectively replaced by small molecules of the same signaling pathway

C[C@H](NC(=O)/C(C#N)=C/c1cccc(Br)n1)c1ccccc1 [WP1066]
replacement of Baricitinib (beating cells, number of cTnT-positive cells) [1]: only its structural analogue Ruxolitinib could be used for replacement
